Where no end group is shown, it is not given here.
Experiments:
[1] = Eye irritation test of TP4 in New Zealand White rabbits; type: in vivo; conditions: for Abnormality iris, grading / Chemosis, grading / Conjunctivae redness, grading / Corneal opacity, grading: rabbits, OECD 405 grading
Description: Healthy young adults rabbit eyes were treated with TP4, PBS (vehicle control), or 0.1% SDS (positive control). […] […] Clinical signs were recorded during the test period, and grades were assigned for ocular reactions during examination.

[2] = Eye irritation test of Epi-1 in rabbits; conditions: for Reversibility: 7 days then recovery
Description: This study used healthy young adults of the New Zealand white albino rabbit breed. […] The eyes were examined on days 1, 3, 5, and 7, and then allowed to recover until day 14; at this time, clinical observation scores were recorded, and grades assigned for ocular reactions observed during each examination.

Dermal toxicity of TP4 = type: in vivo, C3H/HeN mice; conditions: mice, 48 h post-exposure, 125 mg/kg TP4 or 20% SDS (FIG. 17B)
Description: TP4 (125 mg/kg) was applied onto the mouse skin (topical).

H. pylori [3] = assay: Development of drug resistance on passage at sub-inhibitory doses; type: cell-based, Helicobacter pylori; conditions: passages at sub-inhibitory doses in vitro
Description: A major driver of drug resistance development is inappropriate antibiotic use and poor compliance with therapeutic regimens. 28 Here, we established a model for simulating conditions of drug resistance emergence: bacteria were exposed to sub-inhibitory doses of antibiotics (AMOX, CLRN, METZ), or peptide TP4 in vitro (see supplementary material methods).

[4] = test system: resistant clinical isolate CI-HC-028; assay: Time-based susceptibility of resistant isolate to TP4 and antibiotics; type: cell-based, Helicobacter pylori; conditions: CI-HC-028, at MIC
Description: (§1) TP4 peptide solutions (100 μl) at concentrations corresponding to ¼, ½, 1, 2, and 4 fold the MIC were prepared and added to an equal volume of solution containing H. pylori counts of approximately 10^7 CFU mL-1 onto a microtitre plate. The plates were incubated at 37° C., and samples were collected at 1, 3, 6, 12, and 24 h and plated with appropriate dilutions onto blood agar plates; bacterial counts were enumerated and expressed as mean log (CFU mL-1) with standard error.
The bactericidal activities of TP4 and conventional antibiotics against resistant clinical isolate CI-HC-028 were compared. Certain resistant strains of H. pylori was previously reported to be resistant to metronidazole and clarithromycin 27. […] Thus, there is no correlation between multidrug resistant (MDR) phenotype and vulnerability to TP4.

H. pylori [5] = assay: Transmission electron microscopy (TP4); type: cell-based, Helicobacter pylori; conditions: 2 h post exposure
Description: Transmission electron microscopy (TEM) was used to examine the TP4 mechanism of action on H. pylori, overall cell morphology, TP4 translocation into H. pylori, and interaction of TP4 with internal targets. H. pylori overnight cultures from BHI-blood agar plates were collected, and 0.1 OD inocula were incubated with TP4, Amoxicillin, and/or PBS (PBS only: negative control). […] The cells were then fixed and processed for TEM using previously described methods, with some modifications. Briefly, cells were dehydrated in a graduated series of ethanol, followed by resin polymerization at 65° C. for 3 days. An EM ultramicrotome was used to slice thin sections of 70- to 80-nm thickness from the polymerized blocks, which were then loaded on 400-mesh copper grids. The sections were post stained with 2% uranyl acetate for 15 min and then lead citrate for 5 min, before being mounted for observation using an FEI Tecnai G2 F20 S-TWIN transmission electron microscope (FEI Company, Hillsboro, Oreg.) operating at 80 keV. […] Each grid was scrutinized with the same settings. Images were recorded with a 4MP SPOT Insight charge-coupled-device (CCD) camera.

H. pylori [6] = assay: Transmission electron microscopy (Epi-1); type: cell-based, Helicobacter pylori
Description: Transmission electron microscopy was used to examine Epi-1 induced morphological changes of H. pylori. The samples were fixed and processed as previously described. All samples were examined with an FEI Tecnai G2 F20 S-TWIN transmission electron microscope (FEI Company, Hillsboro, Oreg.) operating at an accelerating voltage of 80 kV. Images were recorded with a charge-coupled device camera at various magnifications.

H. pylori ATCC 43629 = type: cell-based, Helicobacter pylori
Description: (§2) H. pylori cells undergoing exponential growth were suspended in sterile phosphate-buffered saline (PBS), and adjusted to 0.05 OD using BHI broth; the inoculum was dispensed onto a microtitre plate. Peptide TP4 was prepared at various concentrations (0.04 to 50 μg mL-1) using PBS. Antibiotic resistant clinical isolate CI-HC-028 and three reference strains were used for susceptibility testing. The MIC was defined as the lowest concentration of the drug at which there was no visible growth. For quality control and comparative analyses, the susceptibility of all four H. pylori strains to the antibiotics amoxicillin, clarithromycin, and metronidazole were also examined.

H. pylori ATCC 700392 = type: cell-based, Helicobacter pylori
Description: as §2

H. pylori ATCC 43504 = type: cell-based, Helicobacter pylori
Description: as §2

H. pylori [7] = assay: Dose and time-dependent killing by TP4; type: cell-based, Helicobacter pylori; conditions: at 2×MIC
Description: as §1

[8] = test system: H. pylori clinical isolate CI-HC-028; assay: Anti-H. pylori assessment in vitro (MIC), Example 2; type: cell-based, Helicobacter pylori; conditions: NE: No effect
Description: as §2

[9] = 2.5 mg applied to skin, daily for 7 days, Balb/c mice
Description: Dermal toxicity was assessed in Balb/c mice, through administering daily doses of Epi-1 (2.5 mg/animal) for 7 days [40, 41]. Animals were kept under observation for a minimum of 48 h. Skin abnormalities were recorded.

[10] = Acute oral toxicity of Epi-1; type: in vivo; conditions: 125 mg/kg, mice
Description: Acute oral toxicity was assessed in mice with 6 animals per group, by single oral administration of Epi-1 at 125 mg/kg body weight. Animals were placed under observation for about 48 hr. The mortality, morbidity rate, and clinical signs were recorded.

[11] = Sub-acute oral toxicity of Epi-1; type: in vivo, mice
Description: Sub-acute oral toxicity was assessed with over a test period of 14 days in which mice were given 600 μg/mouse/day. During the study period, animals were observed daily for clinical signs and mortality.

Molecule: CCCCCCCCCCCCOS(=O)(=O)[O-].[Na+] [SDS, reference compound]
- ocular appearance ([1]; rabbits treated with 50 mg/kg TP4 or SDS for 7 days, observed daily (FIG. 17A)): severe lacrimation, swelling of the eyelids, and elevated blood vessels in conjunctivae
- Abnormality iris, grading ([1]; Day 1): 0
- Chemosis, grading ([1]; Day 1): 1.5
- Conjunctivae redness, grading ([1]; Day 1): 1
- Corneal opacity, grading ([1]; Day 1): 1
- Abnormality iris, grading ([1]; Day 3): 0
- Chemosis, grading ([1]; Day 3): 1.5
- Conjunctivae redness, grading ([1]; Day 3): 1
- Corneal opacity, grading ([1]; Day 3): 1
- Abnormality iris, grading ([1]; Day 5): 0
- Chemosis, grading ([1]; Day 5): 2
- Conjunctivae redness, grading ([1]; Day 5): 1
- Corneal opacity, grading ([1]; Day 5): 1
- Abnormality iris, grading ([1]; Day 7): 0
- Chemosis, grading ([1]; Day 7): 2
- Conjunctivae redness, grading ([1]; Day 7): 1
- Corneal opacity, grading ([1]; Day 7): 1
- Abnormality iris, grading ([1]; Recovery, Day 14): 0
- Chemosis, grading ([1]; Recovery, Day 14): 1.5
- Conjunctivae redness, grading ([1]; Recovery, Day 14): 0.5
- Corneal opacity, grading ([1]; Recovery, Day 14): 0.5
- Corneal opacity, Grade ([2]; rabbit eye, 7 days): 2
- Redness of conjunctivae, Grade ([2]; rabbit eye, 7 days): 1
- Reversibility ([2]; rabbit eye): No
- Iris lesion, Grade ([2]; rabbit, in vivo): 0
- appearance of the skin (Dermal toxicity of TP4): no obvious lesions were observed

Molecule: CC1(C)S[C@@H]2[C@H](NC(=O)[C@H](N)c3ccc(O)cc3)C(=O)N2[C@H]1C(=O)O [amoxicillin]
- drug resistance index (MICp/MICs) (H. pylori [3]): increased slightly after passage 6, and remained constant thereafter
- killing ([4]; within 24 hr): 90%
- ultrastructure of H. pylori cells (TEM) (H. pylori [5]): appeared as ‘ghost’ cells, with loose outer membranes
- morphology of H. pylori cells (TEM) (H. pylori [6]): low percentage of coccoid morphology

Molecule: CC[C@H]1OC(=O)[C@H](C)[C@@H](O[C@H]2C[C@@](C)(OC)[C@@H](O)[C@H](C)O2)[C@H](C)[C@@H](O[C@@H]2O[C@H](C)C[C@H](N(C)C)[C@H]2O)[C@](C)(OC)C[C@@H](C)C(=O)[C@H](C)[C@@H](O)[C@]1(C)O [clarithromycin]
- drug resistance index (MICp/MICs) (H. pylori [3]): gradually increased from passage 3 to the last passage
- time taken to 90% reduction [4]: > 24 h

Molecule: Cc1ncc([N+](=O)[O-])n1CCO [metronidazole]
- drug resistance index (MICp/MICs) (H. pylori [3]): gradually increased from passage 3 to the last passage
- course of cell count ([4]; 24 h): initial decrease in cell count, but gradually lost activity

Molecule: FDWDSVLKGVEGFVRGYF [TP1]
- MIC (H. pylori ATCC 43629): >12 µg/mL
- MIC (H. pylori ATCC 700392): >12 µg/mL
- MIC (H. pylori ATCC 43504): >12 µg/mL

Molecule: FIHHIIGGLFSAGKAIHRLIRRRRR [TP4, Nile tilapia piscidin 4]
- dose dependent effect against H. pylori (killing) (H. pylori [7]): 99.99%
- MIC (H. pylori ATCC 43629): 1.5 to 3 µg/mL
- MIC (H. pylori ATCC 700392): 1.5 to 3 µg/mL
- MIC (H. pylori ATCC 43504): 1.5 to 3 µg/mL
- MIC [8]: 1.5 to 3 µg/mL

Molecule: FIHHIIGGLFSVGKHIHSLIHGH [TP3]
- MIC (H. pylori ATCC 43629): 8 to 12 µg/mL
- MIC (H. pylori ATCC 700392): 8 to 12 µg/mL
- MIC (H. pylori ATCC 43504): 8 to 12 µg/mL
- MIC [8]: 8 to 12 µg/mL

Molecule: GFIFHIIKGLFHAGKMIHGLV-NH2 [Epi-1, Epinecidin-1]
- dermal irritation, lesions, clinical signs [9]: did not cause any irritation, lesions, or clinical signs
- ocular signs ([2]; days 2 and 3, 1 mg/eye/day): signs of lacrimation
- Corneal opacity, Grade ([2]; rabbit eye, 7 days): 0
- Iris lesion, Grade ([2]; rabbit eye, 7 days): 0
- Redness of conjunctivae, Grade ([2]; rabbit eye, 7 days): 0.1
- Reversibility ([2]; rabbit eye): yes
- clinical abnormalities, morbidity, death [10]: did not induce any clinical abnormalities, morbidity, or death
- whole blood biochemistry (GOT, GPT, BUN, CRE, TBIL, UA) ([11]; after acute and sub-acute oral administration): no significant changes
- clinical abnormalities, morbidity, death ([11]; sub-acute oral, 600 μg/mice): did not induce any clinical abnormalities, morbidity, or death

Molecule: QLQGKQVSGEVVQKVLQELIQSVAKP [TP5]
- MIC (H. pylori ATCC 43629): >12 µg/mL
- MIC (H. pylori ATCC 700392): >12 µg/mL
- MIC (H. pylori ATCC 43504): >12 µg/mL
- MIC [8]: >12 µg/mL
